The values below come from patent US20090233888A1, “TREATMENT OF DISEASE CONDITIONS THROUGH MODULATION OF HYDROGEN SULFIDE PRODUCED BY SMALL INTESTINAL BACTERIAL OVERGROWTH” (priority 2005, published 2009).

The test system of series [1] is intestinal transit across the proximal gut. The series is described as follows: Intestinal transit in dogs with duodenal and midgut fistulas. It counts as in vivo. Particulars: last 30 min of 90-min perfusion, mean±SE, buffer control 53.77±5.96%. As to the method: The inventor determined the effect of hydrogen sulfide on intestinal transit. Five dogs were equipped with duodenal and midgut fistulas. With occluding Foley catheters in the distal limb of the 2 fistulas, the small intestine was compartmentalized into the proximal and distal ½ of the gut. The proximal gut was perfused with pH 7.0 phosphate buffer with 0 or 1 mM NaHS (a donor of H2S) at 2 ml/min while the distal gut was perfused with pH 7.0 phosphate buffer with 0 or 60 mM oleate at 2 ml/min for 90 minutes. 60 mM oleate was used to trigger the ileal brake response to slow intestinal transit. Intestinal transit across the proximal gut was measured by the cumulative % recovery of a radioactive marker out of the midgut fistula during the last 30 min of the 90-min perfusion (data=mean±SE).

Series [2] deals with gut bacteria. The settings on record: Norfloxacin treatment; cited from earlier work.
For series [3] the following is noted: inhaled; cited from earlier work.
For series [4] the following is noted: rat model of HPS, chronic bile duct ligation; cited from earlier work.
The conditions of series [5]: single patient with HPS, enhanced oxygenation; cited from earlier work.
Series [6] concerns SIBO. The settings on record: about 400 mg TID for about 10 days; cited from earlier work.
The conditions of series [7]: 100 patients, mild to moderate AD, doxycycline and rifampin together; cited from earlier work.

On to `CCCCCCCC/C=C\CCCCCCCC(=O)O` [fat, oleate], for which, in series [1] (fat (60 mM oleate) in distal 1/2 of gut, ileal brake), the “Intestinal transit: cumulative % recovery of a radioactive marker out of the midgut fistula” value is 16.00±3.92%.

Regarding `CCn1cc(C(=O)O)c(=O)c2cc(F)c(N3CCNCC3)cc21` [Norfloxacin], in series [2], the iNOS expression result was “normalized” and the “severity of intrapulmonary vascular dilatation, reduction” value is reported as “about ½”. As for `S` [Hydrogen sulfide], the “level that can be fatal (respiratory failure and pulmonary edema)” value in series [3] is on record as above 600 ppm. For the same molecule, the “Intestinal transit: cumulative % recovery of a radioactive marker out of the midgut fistula” value in series [1] (H2S perfused in distal compartment) came out at 60.72±8.97%; in series [1] (H2S perfused in proximal compartment (1 mM NaHS, pH 7.0 phosphate buffer, 2 ml/min)), 37.78±3.80%.

Regarding `COC(=O)[C@@H](N)CCCNC(=N)N[N+](=O)[O-]` [L-NAME, nomega-nitro-L-arginine methylester], the hypoxia entry in series [4] is given as “improved but did not correct hypoxia”. In addition, the extra walking distance in series [5] is listed as 92 M.

On to `CO[C@H]1/C=C/O[C@@]2(C)Oc3c(C)c(O)c4c(O)c(c5c(nc6cc(C)ccn65)c4c3C2=O)NC(=O)/C(C)=C\C=C\[C@H](C)[C@H](O)[C@@H](C)[C@@H](O)[C@@H](C)[C@H](OC(C)=O)[C@@H]1C` [rifaximin], for which, in series [6], the “efficacy in achieving successful partial eradication of SIBO” value is reported as 60-70%. `CO[C@H]1/C=C/O[C@@]2(C)Oc3c(C)c(O)c4c(O)c(c(/C=N/N5CCN(C)CC5)c(O)c4c3C2=O)NC(=O)/C(C)=C\C=C\[C@H](C)[C@H](O)[C@@H](C)[C@@H](O)[C@@H](C)[C@H](OC(C)=O)[C@@H]1C` [rifampin]: the cognitive worsening entry in series [7] was “reduce cognitive worsening”.
